Measurements reported in ChEMBL document CHEMBL4308825, “Positive and Negative Allosteric Modulators of N-Methyl-d-aspartate (NMDA) Receptors: Structure-Activity Relationships and Mechanisms of Action” (J Med Chem, 2018).
One block for each molecule: values may come before it.

Columns and labels:
[1] = molecular target: T1, Glutamate receptor ionotropic, NMDA 2A (Homo sapiens, UniProt Q05586+Q12879); assay: Negative allosteric modulation of GluN2A receptor (unknown origin) expressed in xenopus laevis oocytes assessed as reduction in glycine-induced channel current by two electrode voltage clamp method; format: cell-based
T1 sequence (Q12879 whole entry, one chain of several): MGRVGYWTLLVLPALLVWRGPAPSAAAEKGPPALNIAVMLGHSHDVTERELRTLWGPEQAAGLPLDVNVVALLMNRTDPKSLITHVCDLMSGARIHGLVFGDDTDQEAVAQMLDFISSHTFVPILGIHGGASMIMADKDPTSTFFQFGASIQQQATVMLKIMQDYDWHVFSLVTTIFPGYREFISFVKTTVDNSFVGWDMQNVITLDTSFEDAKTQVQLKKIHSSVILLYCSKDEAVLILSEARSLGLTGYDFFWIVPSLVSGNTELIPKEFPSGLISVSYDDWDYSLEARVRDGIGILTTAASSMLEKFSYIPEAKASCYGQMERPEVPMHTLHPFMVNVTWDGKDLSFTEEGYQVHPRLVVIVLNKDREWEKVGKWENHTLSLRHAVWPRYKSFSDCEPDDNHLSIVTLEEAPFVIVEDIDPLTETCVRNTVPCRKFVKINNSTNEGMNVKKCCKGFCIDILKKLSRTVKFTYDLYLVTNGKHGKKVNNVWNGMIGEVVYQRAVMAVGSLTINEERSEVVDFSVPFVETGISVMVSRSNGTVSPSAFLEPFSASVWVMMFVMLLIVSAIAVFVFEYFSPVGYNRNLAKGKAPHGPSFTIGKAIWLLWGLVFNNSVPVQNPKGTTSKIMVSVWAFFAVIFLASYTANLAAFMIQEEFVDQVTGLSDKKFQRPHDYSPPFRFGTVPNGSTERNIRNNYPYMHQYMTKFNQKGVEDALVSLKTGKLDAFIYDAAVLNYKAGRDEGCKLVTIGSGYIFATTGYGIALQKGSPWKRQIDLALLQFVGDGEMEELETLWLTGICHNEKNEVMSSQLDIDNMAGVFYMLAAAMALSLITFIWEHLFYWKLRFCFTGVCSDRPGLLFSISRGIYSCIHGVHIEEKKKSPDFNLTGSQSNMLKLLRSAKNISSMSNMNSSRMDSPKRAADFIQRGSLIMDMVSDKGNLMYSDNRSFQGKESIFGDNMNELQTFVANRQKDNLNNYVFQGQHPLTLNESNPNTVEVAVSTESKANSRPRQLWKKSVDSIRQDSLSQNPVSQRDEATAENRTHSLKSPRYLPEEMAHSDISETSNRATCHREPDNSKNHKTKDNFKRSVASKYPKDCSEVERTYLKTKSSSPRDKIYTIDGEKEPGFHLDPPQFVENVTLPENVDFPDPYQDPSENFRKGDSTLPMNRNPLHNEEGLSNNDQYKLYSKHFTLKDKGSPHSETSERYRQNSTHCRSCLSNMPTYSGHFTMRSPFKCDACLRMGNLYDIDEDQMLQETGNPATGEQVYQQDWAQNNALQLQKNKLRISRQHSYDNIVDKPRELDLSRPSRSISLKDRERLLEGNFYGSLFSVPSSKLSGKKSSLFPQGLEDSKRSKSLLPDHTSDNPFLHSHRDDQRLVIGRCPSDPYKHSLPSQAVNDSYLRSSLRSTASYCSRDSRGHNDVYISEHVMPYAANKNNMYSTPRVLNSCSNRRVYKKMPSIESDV

[2] = molecular target: T2, Glutamate receptor ionotropic, NMDA 2B (Homo sapiens, UniProt Q05586+Q13224); assay: Negative allosteric modulation of GluN2B receptor (unknown origin) expressed in xenopus laevis oocytes assessed as reduction in glycine-induced channel current by two electrode voltage clamp method; format: cell-based
T2 sequence (Q13224 whole entry, one chain of several): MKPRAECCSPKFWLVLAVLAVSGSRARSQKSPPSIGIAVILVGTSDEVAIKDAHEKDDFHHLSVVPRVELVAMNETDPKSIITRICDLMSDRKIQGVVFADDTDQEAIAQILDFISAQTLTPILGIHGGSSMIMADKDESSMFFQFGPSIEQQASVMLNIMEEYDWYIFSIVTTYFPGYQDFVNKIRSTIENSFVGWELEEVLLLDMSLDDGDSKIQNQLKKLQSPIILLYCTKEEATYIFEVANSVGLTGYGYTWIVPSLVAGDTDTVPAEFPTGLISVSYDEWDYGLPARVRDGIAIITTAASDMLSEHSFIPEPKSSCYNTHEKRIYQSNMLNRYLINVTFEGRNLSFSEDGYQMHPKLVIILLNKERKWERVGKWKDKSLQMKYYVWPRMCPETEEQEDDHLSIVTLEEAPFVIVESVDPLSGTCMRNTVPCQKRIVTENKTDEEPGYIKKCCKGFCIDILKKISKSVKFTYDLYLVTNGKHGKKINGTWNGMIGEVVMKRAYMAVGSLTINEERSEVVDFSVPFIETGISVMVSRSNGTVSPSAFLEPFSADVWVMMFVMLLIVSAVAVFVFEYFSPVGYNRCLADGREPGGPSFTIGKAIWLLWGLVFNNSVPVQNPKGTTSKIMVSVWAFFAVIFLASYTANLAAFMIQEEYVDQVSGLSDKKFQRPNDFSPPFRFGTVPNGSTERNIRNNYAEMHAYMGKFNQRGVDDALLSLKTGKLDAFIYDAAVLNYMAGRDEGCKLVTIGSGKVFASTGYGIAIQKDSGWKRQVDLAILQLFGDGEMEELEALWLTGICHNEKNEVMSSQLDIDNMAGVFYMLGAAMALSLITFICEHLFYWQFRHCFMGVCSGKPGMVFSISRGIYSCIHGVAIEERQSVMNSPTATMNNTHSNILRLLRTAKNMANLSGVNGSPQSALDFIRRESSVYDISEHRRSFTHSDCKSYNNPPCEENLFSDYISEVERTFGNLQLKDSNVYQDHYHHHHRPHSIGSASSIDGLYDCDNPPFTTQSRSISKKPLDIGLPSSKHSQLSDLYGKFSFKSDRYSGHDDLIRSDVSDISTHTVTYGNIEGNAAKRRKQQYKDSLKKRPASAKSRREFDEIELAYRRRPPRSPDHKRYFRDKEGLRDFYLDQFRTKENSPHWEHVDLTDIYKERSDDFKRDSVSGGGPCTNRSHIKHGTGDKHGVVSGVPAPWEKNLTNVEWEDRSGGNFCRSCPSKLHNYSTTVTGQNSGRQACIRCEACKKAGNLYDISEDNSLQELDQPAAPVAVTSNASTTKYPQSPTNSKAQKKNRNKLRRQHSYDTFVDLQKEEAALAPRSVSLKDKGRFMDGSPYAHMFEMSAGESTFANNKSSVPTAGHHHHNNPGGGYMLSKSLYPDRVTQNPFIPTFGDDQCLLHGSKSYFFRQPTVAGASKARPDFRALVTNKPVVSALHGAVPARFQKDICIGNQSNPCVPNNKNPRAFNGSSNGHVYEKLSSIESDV

[3] = molecular target: T3, Glutamate receptor ionotropic, NMDA 2C (Homo sapiens, UniProt Q05586+Q14957); assay: Negative allosteric modulation of GluN2C receptor (unknown origin) expressed in xenopus laevis oocytes assessed as reduction in glycine-induced channel current by two electrode voltage clamp method; format: cell-based
[4] = molecular target: T4, Glutamate receptor ionotropic, NMDA 2D (Homo sapiens, UniProt O15399+Q05586); assay: Positive allosteric modulation of GluN2D receptor (unknown origin) expressed in xenopus laevis oocytes assessed as increase in glycine-induced channel current by two electrode voltage clamp method; format: cell-based
T4 sequence (O15399 whole entry, one chain of several): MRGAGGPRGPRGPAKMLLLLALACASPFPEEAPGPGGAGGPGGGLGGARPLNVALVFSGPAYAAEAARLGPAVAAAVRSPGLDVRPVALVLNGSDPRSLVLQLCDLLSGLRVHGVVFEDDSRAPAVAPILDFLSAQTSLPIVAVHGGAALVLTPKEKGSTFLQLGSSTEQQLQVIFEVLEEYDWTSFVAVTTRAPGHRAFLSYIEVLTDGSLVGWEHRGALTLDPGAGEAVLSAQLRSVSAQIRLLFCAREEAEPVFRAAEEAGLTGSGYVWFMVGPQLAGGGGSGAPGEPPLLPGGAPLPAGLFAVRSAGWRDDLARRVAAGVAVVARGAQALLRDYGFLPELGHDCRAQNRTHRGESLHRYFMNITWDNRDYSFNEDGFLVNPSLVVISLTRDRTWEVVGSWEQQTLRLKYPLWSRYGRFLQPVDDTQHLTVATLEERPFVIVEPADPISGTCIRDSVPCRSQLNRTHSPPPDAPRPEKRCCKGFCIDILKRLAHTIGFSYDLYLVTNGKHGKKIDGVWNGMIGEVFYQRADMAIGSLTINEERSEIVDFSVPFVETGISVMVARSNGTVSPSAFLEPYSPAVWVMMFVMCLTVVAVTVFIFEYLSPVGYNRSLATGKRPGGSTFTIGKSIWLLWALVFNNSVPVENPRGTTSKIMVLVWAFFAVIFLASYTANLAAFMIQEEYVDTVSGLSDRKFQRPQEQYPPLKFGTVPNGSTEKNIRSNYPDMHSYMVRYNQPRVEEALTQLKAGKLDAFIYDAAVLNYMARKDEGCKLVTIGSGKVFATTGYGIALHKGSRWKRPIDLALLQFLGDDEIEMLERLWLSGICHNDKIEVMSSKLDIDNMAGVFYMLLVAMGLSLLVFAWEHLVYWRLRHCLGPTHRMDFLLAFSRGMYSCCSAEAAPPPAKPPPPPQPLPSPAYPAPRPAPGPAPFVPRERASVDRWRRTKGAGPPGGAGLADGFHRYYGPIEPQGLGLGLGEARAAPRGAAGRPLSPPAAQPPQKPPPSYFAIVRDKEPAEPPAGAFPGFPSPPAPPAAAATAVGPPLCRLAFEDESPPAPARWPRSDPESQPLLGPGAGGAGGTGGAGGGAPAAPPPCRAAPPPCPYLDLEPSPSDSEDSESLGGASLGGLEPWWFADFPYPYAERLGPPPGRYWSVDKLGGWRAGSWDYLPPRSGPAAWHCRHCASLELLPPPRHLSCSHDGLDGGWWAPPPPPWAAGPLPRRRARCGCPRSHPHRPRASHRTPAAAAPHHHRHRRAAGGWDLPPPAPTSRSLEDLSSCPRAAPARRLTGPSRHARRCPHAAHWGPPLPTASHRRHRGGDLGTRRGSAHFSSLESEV

[5] = molecular target: Glutamate NMDA receptor; GRIN1/GRIN2A (Homo sapiens, UniProt Q05586+Q12879); assay: Negative allosteric modulation of GluN1a/GluN2A receptor (unknown origin) expressed in xenopus laevis oocytes assessed as reduction in glutamate/glycine-induced channel current at -60 mV holding potential by two electrode voltage clamp method; format: cell-based
[6] = molecular target: Glutamate NMDA receptor; GRIN1/GRIN2B (Homo sapiens, UniProt Q05586+Q13224); assay: Negative allosteric modulation of GluN1a/GluN2B receptor (unknown origin) expressed in xenopus laevis oocytes assessed as reduction in glutamate/glycine-induced channel current at -60 mV holding potential by two electrode voltage clamp method; format: cell-based
[7] = molecular target: Ionotropic glutamate receptor NMDA 1/2C (Homo sapiens, UniProt Q05586+Q14957); assay: Negative allosteric modulation of GluN1a/GluN2C receptor (unknown origin) expressed in xenopus laevis oocytes assessed as reduction in glutamate/glycine-induced channel current at -60 mV holding potential by two electrode voltage clamp method; format: cell-based
[8] = molecular target: Ionotropic glutamate receptor NMDA 1/2D (Homo sapiens, UniProt O15399+Q05586); assay: Negative allosteric modulation of GluN1a/GluN2D receptor (unknown origin) expressed in xenopus laevis oocytes assessed as reduction in glutamate/glycine-induced channel current at -60 mV holding potential by two electrode voltage clamp method; format: cell-based
Chain of Ionotropic glutamate receptor NMDA 1/2D (O15399 whole entry, other chains not shown): as the sequence (O15399 whole entry, one chain of several) above

[9] = molecular target: T1, Glutamate receptor ionotropic, NMDA 2A; assay: Positive allosteric modulation of GluN2A receptor (unknown origin) expressed in xenopus laevis oocytes assessed as increase in glycine-induced channel current by two electrode voltage clamp method; format: cell-based
[10] = molecular target: T4, Glutamate receptor ionotropic, NMDA 2D; assay: Negative allosteric modulation of GluN2D receptor (unknown origin) expressed in xenopus laevis oocytes assessed as reduction in glycine-induced channel current by two electrode voltage clamp method; format: cell-based
[11] = molecular target: T3, Glutamate receptor ionotropic, NMDA 2C; assay: Positive allosteric modulation of GluN2C receptor (unknown origin) expressed in xenopus laevis oocytes assessed as increase in glycine-induced channel current by two electrode voltage clamp method; format: cell-based
[12] = species: Homo sapiens; assay: Selectivity ratio of IC50 for GluN2B receptor (unknown origin) expressed in xenopus laevis oocytes to IC50 for GluN2C receptor (unknown origin) expressed in xenopus laevis oocytes; format: cell-based
[13] = species: Homo sapiens; assay: Selectivity ratio of IC50 for GluN2A receptor (unknown origin) expressed in xenopus laevis oocytes to IC50 for GluN2C receptor (unknown origin) expressed in xenopus laevis oocytes; format: cell-based
[14] = species: Homo sapiens; assay: Selectivity ratio of IC50 for GluN2B receptor (unknown origin) expressed in xenopus laevis oocytes to IC50 for GluN2D receptor (unknown origin) expressed in xenopus laevis oocytes; format: cell-based
[15] = species: Homo sapiens; assay: Selectivity ratio of IC50 for GluN2A receptor (unknown origin) expressed in xenopus laevis oocytes to IC50 for GluN2D receptor (unknown origin) expressed in xenopus laevis oocytes; format: cell-based
[16] = molecular target: T4, Glutamate receptor ionotropic, NMDA 2D; assay: Negative allosteric modulation of human GluN2D receptor expressed in HEK cells assessed as reduction in glycine/glutamate-induced intracellular calcium flux preincubated for 5 mins followed by glycine/glutamate addition by Fluo-4-AM dye based FLIPR assay; format: cell-based
[17] = molecular target: T3, Glutamate receptor ionotropic, NMDA 2C; assay: Negative allosteric modulation of human GluN2C receptor expressed in xenopus laevis oocytes assessed as reduction in 3 uM glycine-induced channel current at -40 mV holding potential by two electrode voltage clamp method; format: cell-based
[18] = molecular target: T4, Glutamate receptor ionotropic, NMDA 2D; assay: Negative allosteric modulation of human GluN2D receptor expressed in xenopus laevis oocytes assessed as reduction in 3 uM glycine-induced channel current at -40 mV holding potential by two electrode voltage clamp method; format: cell-based
[19] = molecular target: T2, Glutamate receptor ionotropic, NMDA 2B; assay: Positive allosteric modulation of GluN2B receptor (unknown origin) expressed in xenopus laevis oocytes assessed as increase in glycine-induced channel current by two electrode voltage clamp method; format: cell-based
[20] = molecular target: Glutamate receptor ionotropic, NMDA 2B (Rattus norvegicus, UniProt Q00960); assay: Positive allosteric modulation of GluN2B receptor in rat spinal cord neurons assessed as increase in glycine-induced channel current by two electrode voltage clamp method
[21] = molecular target: Glutamate receptor ionotropic, NMDA 2B (Homo sapiens, UniProt Q13224); assay: Positive allosteric modulation of GluN2B receptor (unknown origin) in hippocampal neurons assessed as increase in glycine-induced channel current by two electrode voltage clamp method
[22] = molecular target: T1, Glutamate receptor ionotropic, NMDA 2A; assay: Negative allosteric modulation of human GluN2A receptor expressed in xenopus laevis oocytes assessed as reduction in 3 uM glycine-induced channel current at -40 mV holding potential by two electrode voltage clamp method; format: cell-based
[23] = molecular target: T1, Glutamate receptor ionotropic, NMDA 2A; assay: Positive allosteric modulation of GluN2A receptor (unknown origin) expressed in HEK cell assessed as increase in glycine-induced calcium influx
[24] = molecular target: T1, Glutamate receptor ionotropic, NMDA 2A; assay: Positive allosteric modulation of EGFP-fused human GluN2A receptor expressed in HEK293T cells assessed as increase in glycine-induced channel current by two electrode voltage clamp method; format: cell-based
[25] = molecular target: T2, Glutamate receptor ionotropic, NMDA 2B; assay: Positive allosteric modulation of EGFP-fused human GluN2B receptor expressed in HEK293T cells assessed as increase in glycine-induced channel current by two electrode voltage clamp method; format: cell-based
[26] = molecular target: T3, Glutamate receptor ionotropic, NMDA 2C; assay: Positive allosteric modulation of EGFP-fused human GluN2C receptor expressed in HEK293T cells assessed as increase in glycine-induced channel current by two electrode voltage clamp method; format: cell-based
[27] = molecular target: T4, Glutamate receptor ionotropic, NMDA 2D; assay: Positive allosteric modulation of EGFP-fused human GluN2D receptor expressed in HEK293T cells assessed as increase in glycine-induced channel current by two electrode voltage clamp method; format: cell-based

IC50 [1]: 9.7 µM
IC50 [2]: 9.4 µM
IC50 [3]: 15 µM
EC50 [4]: 10 µM
SMILES: O=C(O)c1cc2cccc(O)c2cc1O

IC50 [1]: 18.6 µM
IC50 [5]: 19 µM
IC50 [6]: 90 µM
IC50 [7]: 68 µM
IC50 [8]: 426 µM
SMILES: O=C(O)c1cc2cc(Br)ccc2oc1=O

EC50 [9]: 8.5 µM
SMILES: Cc1sc2nc(COc3ccc(F)cc3)cc(=O)n2c1[C@@H]1C[C@@H]1CO

IC50 [1]: 182 µM
IC50 [2]: 193 µM
IC50 [3]: 7.1 µM
IC50 [10]: 3.9 µM
SMILES: COc1ccc2nc(/C=C/c3cccc([N+](=O)[O-])c3)n(-c3ccc(C(=O)O)cc3)c(=O)c2c1

IC50 [2]: 113 µM
IC50 [3]: 7 µM
SMILES: Cc1ccc2[nH]c(=O)c(C3=NN(C(=O)CCC(=O)O)C(c4ccc(Br)cc4)C3)c(-c3ccccc3)c2c1 (stereo unspecified)

IC50 [1]: 52 µM
IC50 [2]: 0.009 µM
SMILES: C[C@@H](CN1CCC(Cc2ccccc2)CC1)[C@@H](O)c1ccc(O)cc1

IC50 [2]: 0.012 µM
SMILES: Cc1nccn1Cc1cc(-c2ccc(F)c(C(F)F)c2)cnn1 [EVT-101 FREE BASE]

EC50 [11]: 13 µM
SMILES: COC(=O)c1ccc(C2C(C(C)=O)=C(O)C(=O)N2CCc2c(C)[nH]c3ccccc23)cc1 (stereo unspecified)

IC50 [3]: 2.6 µM
IC50 [10]: 1.4 µM
Ratio IC50 [12]: > 400
Ratio IC50 [13]: > 400
Ratio IC50 [14]: > 400
Ratio IC50 [15]: > 400
SMILES: CCN(CC)C(=S)Oc1ccc(C(=O)Nc2cccc3ccccc23)cc1

IC50 [1]: 78 µM
IC50 [2]: 19 µM
IC50 [3]: 5.4 µM
IC50 [10]: 2.7 µM
SMILES: O=C(O)CCC(=O)N1N=C(c2c(-c3ccccc3)c3cc(Br)ccc3[nH]c2=O)CC1c1ccc(Br)cc1 (stereo unspecified)

IC50 [16]: > 30 µM
IC50 [17]: > 10 µM
IC50 [18]: > 10 µM
SMILES: O=C(NNC(=O)c1ccc(CNS(=O)(=O)c2ccc(F)c(Cl)c2)cc1)c1ccccc1

EC50 [19]: 127 µM
EC50 [20]: 81 µM
EC50 [21]: 125 µM
SMILES: NCCCNCCCCNCCCN [SPERMINE]

EC50 [4]: 29 µM
EC50 [9]: 28 µM
EC50 [19]: 34 µM
EC50 [11]: 37 µM
SMILES: CC(C)CCCc1ccc2cc(C(=O)O)ccc2c1

IC50 [22]: 39.5 µM
IC50 [17]: 29.1 µM
IC50 [18]: 75.9 µM
SMILES: CC(C(O)c1ccc(O)cc1)N1CCC(Cc2ccccc2)CC1 (stereo unspecified) [IFENPRODIL]

IC50 [1]: 1.8 µM
IC50 [2]: 2.4 µM
IC50 [3]: 2 µM
IC50 [10]: 2.4 µM
SMILES: O=C(O)c1cc2cc(-c3ccccc3)ccc2c(Br)c1O

SMILES: CC(=O)[C@H]1CC[C@H]2[C@@H]3CC[C@@H]4C[C@H](OS(=O)(=O)O)CC[C@]4(C)[C@H]3CC[C@]12C
IC50 [1]: 62 µM
IC50 [2]: 38 µM
IC50 [3]: 12 µM
IC50 [10]: 14 µM

EC50 [4]: 2.8 µM
EC50 [9]: > 10 µM
EC50 [19]: > 10 µM
EC50 [11]: 2.7 µM
SMILES: COc1ccc(OCC2c3cc(OC)c(OC)cc3CCN2C(=O)c2cccc(Cl)c2)cc1 (stereo unspecified)

EC50 [4]: 6.7 µM
EC50 [9]: 3.2 µM
EC50 [19]: 15.7 µM
EC50 [11]: 6.6 µM
SMILES: CCCc1nc2[nH]c(C)c(NS(=O)(=O)c3ccc(C4CCCCC4)cc3)c(=O)n2n1

SMILES: O=C(O)c1ccc2cc(I)c3ccccc3c2c1
IC50 [3]: 50 µM
IC50 [10]: 50 µM
EC50 [9]: 100 µM

EC50 [23]: 2.43 µM
SMILES: CCN(Cc1cc(=O)n2c3c(sc2n1)CCC3)c1ccc(F)cc1

SMILES: CC(=O)[C@H]1CC[C@H]2[C@@H]3CC=C4C[C@@H](OS(=O)(=O)O)CC[C@]4(C)[C@H]3CC[C@]12C
IC50 [3]: 112 µM
IC50 [10]: 118 µM
EC50 [9]: 21 µM
EC50 [19]: 33 µM
EC50 [24]: 34 µM
EC50 [25]: 63 µM
EC50 [26]: 83 µM
EC50 [27]: 78 µM
